Values quoted from earlier work as cited in US20130108599A1, “Herbal Vaginal Compositions” (priority 2011, published 2013).

Key:
[1] = tested on: Candida albicans (KCTC 7270)

| Structure (SMILES) | anti-microbial activity among the catechins (vaginal pathogens) | growth of C. albicans [1] |
| --- | --- | --- |
| O=C(O[C@@H]1Cc2c(O)cc(O)cc2O[C@@H]1c1cc(O)c(O)c(O)c1)c1cc(O)c(O)c(O)c1 [epigallocatechin gallate] | strongest anti-microbial activity | – |
| Cn1c(=O)c2c(ncn2C)n(C)c1=O [caffeine] | – | strongly inhibited |
